Experimental data published in the supplement of paper PMC10307832.

How the values were obtained:
Assay in all cases: relative viability (nuclei count vs DMSO), 5 days (fraction); higher = more cells survive
Dabrafenib + Pemetrexed = compound: CC(C)(C)c1nc(-c2cccc(NS(=O)(=O)c3c(F)cccc3F)c2F)c(-c2ccnc(N)n2)s1 [Dabrafenib] + Nc1nc2[nH]cc(CCc3ccc(C(=O)N[C@@H](CCC(=O)O)C(=O)O)cc3)c2c(=O)[nH]1 [Pemetrexed] (partner 0.2 µM)
Outline: (§1)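 Lung cancer cell lines were seeded in 1536-well plates and dosed by pin tool the next day, with either a single drug or a fixed anchor-drug dose combined with five library-drug doses (not always all listed) spaced in √10 steps. Five days later, one step fixed the cells and stained their nuclei (final 0.05% Triton X-100, 1% formaldehyde, 1 ug/ml Hoechst), and nuclei were counted on 4× images. Relative viability is the nuclei count in treated wells divided by the count in vehicle wells, and each value is the median of duplicate plates.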

VX-702 + Trametinib = compound: NC(=O)c1ccc(N(C(N)=O)c2c(F)cccc2F)nc1-c1ccc(F)cc1F [VX-702] + CC(=O)Nc1cccc(-n2c(=O)n(C3CC3)c(=O)c3c(Nc4ccc(I)cc4F)n(C)c(=O)c(C)c32)c1 [Trametinib] (partner 0.02 µM)
Outline: as §1

VX-702 + Foretinib = compound: NC(=O)c1ccc(N(C(N)=O)c2c(F)cccc2F)nc1-c1ccc(F)cc1F [VX-702] + COc1cc2c(Oc3ccc(NC(=O)C4(C(=O)Nc5ccc(F)cc5)CC4)cc3F)ccnc2cc1OCCCN1CCOCC1 [Foretinib] (partner 0.25 µM)
Outline: as §1

VX-702 + Pemetrexed = compound: NC(=O)c1ccc(N(C(N)=O)c2c(F)cccc2F)nc1-c1ccc(F)cc1F [VX-702] + Nc1nc2[nH]cc(CCc3ccc(C(=O)N[C@@H](CCC(=O)O)C(=O)O)cc3)c2c(=O)[nH]1 [Pemetrexed] (partner 0.2 µM)
Outline: as §1

EMC-BAC-2
relative viability (Dabrafenib + Pemetrexed; first compound 0.009487 µM): 0.401 | relative viability (Dabrafenib + Pemetrexed; first compound 0.03 µM): 0.392 | relative viability (Dabrafenib + Pemetrexed; first compound 0.09487 µM): 0.32 | relative viability (Dabrafenib + Pemetrexed; first compound 0.3 µM): 0.377 | relative viability (VX-702 + Trametinib; first compound 0.02 µM): 0.914 | relative viability (VX-702 + Trametinib; first compound 0.2 µM): 0.921 | relative viability (VX-702 + Trametinib; first compound 0.6325 µM): 0.842 | relative viability (VX-702 + Trametinib; first compound 2 µM): 0.725 | relative viability (VX-702 + Foretinib; first compound 0.02 µM): 0.597 | relative viability (VX-702 + Foretinib; first compound 0.2 µM): 0.93 | relative viability (VX-702 + Foretinib; first compound 0.6325 µM): 0.999 | relative viability (VX-702 + Foretinib; first compound 2 µM): 1.06 | relative viability (VX-702 + Pemetrexed; first compound 0.02 µM): 0.472 | relative viability (VX-702 + Pemetrexed; first compound 0.2 µM): 0.436 | relative viability (VX-702 + Pemetrexed; first compound 0.6325 µM): 0.407 | relative viability (VX-702 + Pemetrexed; first compound 2 µM): 0.416

EPLC-272H
relative viability (Dabrafenib + Pemetrexed; first compound 0.003 µM): 0.273 | relative viability (Dabrafenib + Pemetrexed; first compound 0.009487 µM): 0.271 | relative viability (Dabrafenib + Pemetrexed; first compound 0.03 µM): 0.304 | relative viability (Dabrafenib + Pemetrexed; first compound 0.09487 µM): 0.262 | relative viability (Dabrafenib + Pemetrexed; first compound 0.3 µM): 0.488 | relative viability (VX-702 + Trametinib; first compound 0.02 µM): 0.296 | relative viability (VX-702 + Trametinib; first compound 0.2 µM): 0.279 | relative viability (VX-702 + Trametinib; first compound 0.6325 µM): 0.279 | relative viability (VX-702 + Trametinib; first compound 2 µM): 0.273 | relative viability (VX-702 + Foretinib; first compound 0.02 µM): 0.6 | relative viability (VX-702 + Foretinib; first compound 0.2 µM): 0.659 | relative viability (VX-702 + Foretinib; first compound 0.6325 µM): 0.667 | relative viability (VX-702 + Foretinib; first compound 2 µM): 0.817 | relative viability (VX-702 + Pemetrexed; first compound 0.02 µM): 0.354 | relative viability (VX-702 + Pemetrexed; first compound 0.2 µM): 0.402 | relative viability (VX-702 + Pemetrexed; first compound 0.6325 µM): 0.318 | relative viability (VX-702 + Pemetrexed; first compound 2 µM): 0.403

H3255
relative viability (Dabrafenib + Pemetrexed; first compound 0.003 µM): 0.564 | relative viability (Dabrafenib + Pemetrexed; first compound 0.009487 µM): 0.593 | relative viability (Dabrafenib + Pemetrexed; first compound 0.03 µM): 0.607 | relative viability (Dabrafenib + Pemetrexed; first compound 0.09487 µM): 0.511 | relative viability (Dabrafenib + Pemetrexed; first compound 0.3 µM): 0.643 | relative viability (VX-702 + Trametinib; first compound 0.02 µM): 0.488 | relative viability (VX-702 + Trametinib; first compound 0.6325 µM): 0.581 | relative viability (VX-702 + Trametinib; first compound 2 µM): 0.662 | relative viability (VX-702 + Foretinib; first compound 0.02 µM): 1.01 | relative viability (VX-702 + Foretinib; first compound 0.2 µM): 0.781 | relative viability (VX-702 + Foretinib; first compound 0.6325 µM): 0.89 | relative viability (VX-702 + Foretinib; first compound 2 µM): 0.855 | relative viability (VX-702 + Pemetrexed; first compound 0.02 µM): 0.565 | relative viability (VX-702 + Pemetrexed; first compound 0.2 µM): 0.612 | relative viability (VX-702 + Pemetrexed; first compound 0.6325 µM): 0.551 | relative viability (VX-702 + Pemetrexed; first compound 2 µM): 0.599

HARA
relative viability (Dabrafenib + Pemetrexed; first compound 0.009487 µM): 0.221 | relative viability (Dabrafenib + Pemetrexed; first compound 0.03 µM): 0.252 | relative viability (Dabrafenib + Pemetrexed; first compound 0.09487 µM): 0.238 | relative viability (Dabrafenib + Pemetrexed; first compound 0.3 µM): 0.247 | relative viability (VX-702 + Trametinib; first compound 0.02 µM): 0.818 | relative viability (VX-702 + Trametinib; first compound 0.6325 µM): 0.776 | relative viability (VX-702 + Trametinib; first compound 2 µM): 0.63 | relative viability (VX-702 + Foretinib; first compound 0.02 µM): 0.852 | relative viability (VX-702 + Foretinib; first compound 0.2 µM): 0.763 | relative viability (VX-702 + Foretinib; first compound 0.6325 µM): 0.908 | relative viability (VX-702 + Foretinib; first compound 2 µM): 0.814 | relative viability (VX-702 + Pemetrexed; first compound 0.02 µM): 0.235 | relative viability (VX-702 + Pemetrexed; first compound 0.6325 µM): 0.277 | relative viability (VX-702 + Pemetrexed; first compound 2 µM): 0.256

HCC-15
relative viability (Dabrafenib + Pemetrexed; first compound 0.003 µM): 0.221 | relative viability (Dabrafenib + Pemetrexed; first compound 0.009487 µM): 0.225 | relative viability (Dabrafenib + Pemetrexed; first compound 0.03 µM): 0.227 | relative viability (Dabrafenib + Pemetrexed; first compound 0.09487 µM): 0.212 | relative viability (Dabrafenib + Pemetrexed; first compound 0.3 µM): 0.215 | relative viability (VX-702 + Trametinib; first compound 0.02 µM): 0.345 | relative viability (VX-702 + Trametinib; first compound 0.2 µM): 0.364 | relative viability (VX-702 + Trametinib; first compound 0.6325 µM): 0.322 | relative viability (VX-702 + Trametinib; first compound 2 µM): 0.294 | relative viability (VX-702 + Foretinib; first compound 0.02 µM): 0.952 | relative viability (VX-702 + Foretinib; first compound 0.2 µM): 0.915 | relative viability (VX-702 + Foretinib; first compound 0.6325 µM): 0.99 | relative viability (VX-702 + Foretinib; first compound 2 µM): 0.793 | relative viability (VX-702 + Pemetrexed; first compound 0.02 µM): 0.223 | relative viability (VX-702 + Pemetrexed; first compound 0.2 µM): 0.22 | relative viability (VX-702 + Pemetrexed; first compound 0.6325 µM): 0.227 | relative viability (VX-702 + Pemetrexed; first compound 2 µM): 0.248
